Assay results reported in US8685957B1 (Cubist Pharmaceuticals, Inc., priority 2012, dated 2014).

Assay: Hygroscopicity experiments by DVS (water vapor sorption)
Format: physicochemical
Settings: relative to amorphous tazobactam arginine and amorphous tazobactam sodium
Experimental: Analysis by DVS was performed on a VTI SGA-100 water vapor sorption analyser using approximately 18-23 mg of each sample. Each sample was pre-dried at 60° C. for a maximum of 1 hour and then analyzed at 25° C. in 10% relative humidity (RH) steps from 5-95% (adsorption) and then 90-10% RH (desorption). The sample was equilibrated to each humidity level for a maximum of 3 hours or until constant weight was attained. Equilibrium criteria were set at less than 0.0050% weight change within 5 minutes.

SMILES: C[C@]1(Cn2ccnn2)[C@H](C(=O)O)N2C(=O)CC2S1(=O)=O (stereo partly shown) [Tazobactam arginine polymorph Ia, tazobactam arginine]
- hygroscopicity: low hygroscopicity
